Laboratory results taken from publication PMC4549042, “Targeting procaspase-3 with WF-208, a novel PAC-1 derivative, causes selective cancer cell apoptosis” (Journal of Cellular and Molecular Medicine, 2015).

Tests used:
HL-60 cell line = test: MTT cell viability assay, HL-60; format: cell-based; settings: Homo sapiens, 72 hrs
Procedure: (§1) The cell viability effects of the tested compounds were determined by MTT assay. Cells (1 × 10^4 cells/100 μl/well) were seeded into 96-well culture plates. After overnight incubation, cells were treated with various concentrations of compounds for 72 hrs. Subsequently, 10 μl MTT solution (2.5 mg/ml in PBS) was added to each well, than the cells were incubated for an additional 3–4 hrs at 37°C. After centrifugation (200 × g, 10 min.), the medium with MTT was aspirated, followed by the addition of 100 μl DMSO. The optical density of each well was measured at 570 nm with a Biotek Synergy TM HT Reader.

PBL = test: MTT cytotoxicity in human peripheral blood lymphocytes; format: cell-based; settings: 72 hrs
Procedure: Human peripheral blood lymphocytes were obtained as described previously. In brief, after diluting blood with PBS, lymphocytes were isolated by centrifugation over a density gradient of lymphocytes extracting solution for 15 min. at 280 × g. The cells were harvested, washed with PBS twice, and suspended in complete RPMI 1640 (Gibco, New York, USA) with 10% foetal bovine serum (Gibco, New York, USA).
as §1

[1] = system: mouse primary cortical cell; test: Cytotoxicity in mouse primary cortical neuron cells; format: cell-based; settings: neurotoxicity
Procedure: as §1

PC-3 xenograft = test: Human prostatic carcinoma PC-3 xenograft mouse model; format: in vivo
Procedure: To determine the anti-tumour activity of WF-208 in vivo, viable human prostate cancer PC-3 cells (5 × 10^6/100 μl PBS per mouse) were subcutaneously (s.c.) injected into the right flank of 7- to 8-week old male SCID mice. When the average tumour volume reached 100 mm^3, mice were randomly divided into various treatment and control group (eight mice per group). Tumour size was measured once every 2 days with a calliper (calculated volume = shortest diameter^2 × longest diameter/2). Body weight, diet consumption and tumour size were recorded once every 2 days. After 2 weeks, mice were killed and tumours were excised and stored at −80°C until further analysis.

[2] = system: HL-60 and U-937 cell lines; test: Western blot of Bcl-2 family and IAP proteins in HL-60 and U-937; format: cell-based, human; settings: various concentrations, 24 hrs
Procedure: Approximately 1 × 10^7 HL-60 cells were gathered after pre-treatment with PAC-1 and WF-208 as previously described. The tumour tissue protein was purified according to the reported methods. Western blotting was performed as previously described. All antibodies were purchased from Cell Signaling Technology. In brief, an equal amount of total protein extracts from cultured cells or tissues were fractionated by 10–15% SDS-PAGE and electrically transferred onto polyvinylidene difluoride (PVDF) membranes. Different primary antibodies and corresponding horseradish peroxidase-conjugated secondary antibodies were used to detect the proteins. The bound secondary antibodies on the PVDF membrane were reacted with ECL™ Western Blotting Reagents detection reagents (Thermo Fisher, Rockford, USA) and exposed to X-ray films. Results were normalized to the internal control β-actin.

XIAP and survivin mRNA = test: Quantitative PCR of XIAP and survivin mRNA; format: cell-based, human; settings: real-time PCR, different concentrations
Procedure: About 1 × 10^6 cells were gathered after pre-treatment with PAC-1 or WF-208 as described previously. Total RNA was isolated using RNeasy Mini Kit (Qiagen, Duesseldorf, Germany) as described by the product’s instruction. One microgram of RNA was reversely transcribed with ReverAid First Stand cDNA Sythesis Kit (Thermo Fisher, Rockford, USA). For quantitative PCR, analysis was carried out by using iQ SYBR Green Supermix (Bio-Rad, West Berkeley, USA) and the CFX96 RT-PCR Detection System (Bio-Rad) as instructed by the manufacturer. Primers were GAPDH reverse primer 5′-[…]-3′ and forward primer 5′-TTGCCGACAGGATGCAGAA-3′; XIAP reverse primer 5′-TTGCCGACAGGATGCAGAA-3′ and forward primer 5′-[…]-3′; Survivin reverse primer 5′-GGAAACTGCGGAGAAAGTG-3′ and forward primer 5′-TAAACCCTGGAAGTGGTGC-3′. The PCR cycle started with 5 min. at 95°C, followed by 35 cycles of 3 steps (30 sec. at 95°C, 25 sec. at 56°C, 20 sec. at 72°C). The result was calculated as 2^−ΔΔCt of real-time fluorescence intensity.

[3] = system: procaspase-3-silenced HL-60 cells; test: Cytotoxicity in procaspase-3 silenced HL-60 cells; format: cell-based, human; settings: different concentrations, 24 hrs, vs scrambled siRNA control
Procedure: as §1, with “After overnight incubation, cells were treated with various concentrations of compounds for 72 hrs.” left out
HL-60 cells were transfected with procaspase-3 siRNA (Invitrogen, New York, USA, 100 nmol/l final concentration, Sense siRNA Sequence: GUCUAACUGGAAAACCCAAtt Antisense siRNA Sequence: UUGGGUUUUCCAGUUAGACtt) by Lipofectamine 2000 (Invitrogen) according to the manufacturer’s instructions. Scrambled siRNA (Invitrogen) was control. The cDNA of human procaspase-3 was cloned into pIRES2-EGFP expression vector, and procaspase-3 and EGFP genes were separately expressed. The pIRES2-EGFP and pIRES2-EGFP-procaspase-3 were transiently transfected into MCF-7 cells. Expression of procaspase-3 was verified by western blotting.

[4] = Western blot of tumour tissue after drug exposure

Structure (SMILES): O=C(CN1CCN(Cc2nc(-c3ccc(COc4ccc(Cl)cc4)cc3)no2)CC1)N/N=C/c1ccc(OCc2csc(Cc3ccc4c(c3)OCO4)n2)cc1O [C2]
- IC50 (HL-60 cell line): 0.08 µM
- IC50 (PBL): 743 µM
- IC50 [1]: 96.2 µM
- influence on body weight (PC-3 xenograft; 2.5 mg/kg i.v., 15 days): minimal influence
- tumour volume compared with control group (PC-3 xenograft; 2.5 mg/kg i.v., 15 days): significantly reduced
- expression of activated caspase-3 and cleaved PARP in tumour tissue (PC-3 xenograft; [4]): increased
- expression of survivin and XIAP in tumour tissue (PC-3 xenograft; [4]): decreased
- expression of Bcl-2 family members Bcl-2, Bcl-xl, Bax and BID [2]: not changed
- expression of XIAP and survivin [2]: significantly down-regulated
- XIAP and survivin mRNA (XIAP and survivin mRNA): failed to change
- cytotoxic effect in procaspase-3-silenced HL-60 cells [3]: less than control HL-60 cells
